Laboratory results from patent US20090082456A1, “SOLUBLE EPOXIDE HYDROLASE INHIBITORS” (Arete Therapeutics, Inc., priority 2007, published 2009).

What was measured:
[1] = test system: soluble epoxide hydrolase (sEH); experiment: Fluorescent assay for mouse and human soluble epoxide hydrolase (CMNPC substrate); format: biochemical
Description: Recombinant mouse sEH (MsEH) and human sEH (HsEH) were produced in a baculovirus expression system as previously reported. Grant et al., J. Biol. Chem., 268:17628-17633 (1993); Beetham et al., Arch. Biochem. Biophys., 305:197-201 (1993). The expressed proteins were purified from cell lysate by affinity chromatography. Wixtrom et al., Anal. Biochem., 169:71-80 (1988). Protein concentration was quantified using the Pierce BCA assay using bovine serum albumin as the calibrating standard. The preparations were at least 97% pure as judged by SDS-PAGE and scanning densitometry. They contained no detectable esterase or glutathione transferase activity which can interfere with the assay. The assay was also evaluated with similar results in crude cell lysates or homogenate of tissues. The IC50s for each inhibitor were according to the following procedure: Cyano(2-methoxynaphthalen-6-yl)methyl (3-phenyloxiran-2-yl)methyl carbonate (CMNPC; Jones P. D. et. al.; Analytical Biochemistry 2005; 343: pp. 66-75) Bis/Tris HCl 25 mM pH 7.0 containing 0.1 mg/mL of BSA (buffer A) Mother solution of enzyme in buffer A (Mouse sEH at 6 μg/mL and Human sEH at 5 μg/mL). Inhibitor dissolved in DMSO at the appropriate concentration. In a black 96 well plate, fill all the wells with 150 μL of buffer A. Add 2 μL of DMSO in well A2 and A3, and then add 2 μL of inhibitor solution in A1 and A4 through A12. Add 150 μL of buffer A in row A, then mix several time and transfer 150 μL to row B. Repeat this operation up to row H. The 150 μL removed from row H go to the trash. Add 20 μL of buffer A in column 1 and 2, then add 20 μL of enzyme solution to column 3 to 12. Incubate the plate for 5 minutes in the plate reader at 30° C. During incubation prepare the working solution of substrate by mixing 3.68 mL of buffer A (4×0.920 mL) with 266 μL (2×133 μL) of substrate solution). At t=0, add 30 μL of working substrate solution with multi-channel pipette labeled “Briggs 303” and start the reading ([S]final: 5 μM). Read with ex: 330 nm (20 nm) and em: 465 nm (20 nm) every 30 second for 10 minutes. The velocities are used to analyze and calculate the IC50s.

Row | Structure (SMILES) | melting point [°C] | % Inh ([1]; Conc 200 nM) [%] | % Inh ([1]; Conc 1000 nM) [%] | % Inh ([1]; Conc 2000 nM) [%]
1 | O=C(NC1CCC(NS(=O)(=O)c2cccc(C(F)(F)F)c2)CC1)NC12CC3CC(CC(C3)C1)C2 (stereo not shown) [Compound 1, N-(4-(3-(adamantan-1-yl)ureido)cyclohexyl)-3-(trifluoromethyl)benzenesulfonamide] | 310 to 312 | 98 | – | –
2 | CC(=O)NC1CCC(NC(=O)NC23CC4CC(CC(C4)C2)C3)CC1 (stereo not shown) [Compound 2, N-(4-(3-(adamantan-1-yl)ureido)cyclohexyl)acetamide] | > 300 | – | 98 | –
3 | O=C(Nc1ccc(F)cc1)NC1CCC(NS(=O)(=O)c2cccc(C(F)(F)F)c2)CC1 (stereo not shown) [Compound 3, N-(4-(3-(4-fluorophenyl)ureido)cyclohexyl)-3-(trifluoromethyl)benzenesulfonamide] | 296 to 299 | 98 | – | –
4 | CC(=O)NC1CCC(NC(=O)Nc2ccc(C(F)(F)F)cc2)CC1 (stereo not shown) [Compound 4, N-(4-(3-(4-(trifluoromethyl)phenyl)ureido)cyclohexyl)acetamide] | – | 93 | – | –
5 | CS(=O)(=O)NC1CCC(NC(=O)NC23CC4CC(CC(C4)C2)C3)CC1 (stereo not shown) [Compound 5, N-(4-(3-(adamantan-1-yl)ureido)cyclohexyl)methanesulfonamide] | > 300 | 96 | – | –
6 | CS(=O)(=O)NC1CCC(NC(=O)Nc2ccc(C(F)(F)F)cc2)CC1 (stereo not shown) [Compound 6, N-(4-(3-(4-(trifluoromethyl)phenyl)ureido)cyclohexyl)methanesulfonamide] | 237 to 239 | 99 | – | –
7 | CS(=O)(=O)NC1CCC(NC(=O)c2ccc(F)cc2)CC1 (stereo not shown) [Compound 7, 4-fluoro-N-(4-(methylsulfonamido)cyclohexyl)benzamide] | 269 to 270 | – | – | 44
